In US20100081679A1, “DIAMINOPYRIMIDINES AS FUNGICIDES” (Bayer CropScience AG, priority 2007, published 2010):
Marks after values point to notes of the source that are not given here.

Assay: logP determination via retention times, calibrated with unbranched alkan-2-ones
Format: physicochemical
Details: HPLC on reversed-phase C 18, EEC Directive 79/831 Annex V.A8; method *: 40° C., 0.1% aqueous formic acid and acetonitrile, linear gradient 10% to 95% acetonitrile

Row | Compound | logP
1 | O=C1CCCN1c1cccc(Nc2ncc(Cl)c(NCC3CC3)n2)c1 [compound 520] | 1.56*
2 | CCOC(=O)Nc1ccc(Nc2ncc(Cl)c(NCC3CC3)n2)cc1O [compound 542] | 1.68*
3 | CC(=O)N1CCc2ccc(Nc3ncc(Cl)c(NCC4CC4)n3)cc21 [compound 521] | 1.66*
4 | O=C1CCCN1c1cc(Nc2ncc(Cl)c(NC3CC3)n2)ccc1F [compound 536] | 1.53*

Other lines, results leading:

Row | logP | Compound
5 | 2.51* | CCOC(=O)c1cccc(Nc2ncc(Br)c(NCC3CC3)n2)c1 [compound 477]
6 | 1.49* | Oc1ccc(Nc2ncc(Cl)c(NCC3CC3)n2)cc1F [compound 554]
7 | 2.67* | Clc1ccc(Nc2ncc(Br)c(NCC3CC3)n2)cc1 [compound 474]
8 | 2.18* | CC(C)(C)OC(=O)Nc1ccc(Nc2ncc(Cl)c(NCC3CC3)n2)cc1 [compound 522]
9 | 1.92* | COC(=O)Cc1cccc(Nc2ncc(Cl)c(NCC3CC3)n2)c1 [compound 504]

Same assay, conditions: HPLC on reversed-phase C 18, method **: 43° C.; 0.1% aqueous phosphoric acid and acetonitrile; linear gradient 10% to 95% acetonitrile

Row | logP | Compound
10 | 2.72** | CN(CC1CC1)c1nc(Nc2ccccc2)ncc1Cl [compound 963]
11 | 2.7** | CN(c1nc(Nc2ccccc2)ncc1Cl)C1CC1 [compound 734]

Same assay, conditions: HPLC on reversed-phase C18, method **: 43° C.; mobile phase 0.1% aqueous phosphoric acid and acetonitrile; linear gradient 10% to 95% acetonitrile

Row | logP | Compound
12 | 1.75** | CC(C)NS(=O)(=O)Cc1ccc(Nc2ncc(Cl)c(NC3CC3)n2)cc1 [compound 324]

Same assay, conditions: HPLC on reversed-phase C18, method *: 40° C., 0.1% aqueous formic acid and acetonitrile, linear gradient 10% to 95% acetonitrile

Row | Compound | logP
13 | O=C(c1cccc(Nc2ncc(Cl)c(NC3CC3)n2)c1)N1CCOCC1 [compound 735] | 1.33*
14 | Clc1cnc(Nc2cccc(-c3ccco3)c2)nc1NC1CC1 [compound 714] | 2.54*
15 | Clc1cc(Cl)cc(Nc2ncc(Cl)c(NCC3CC3)n2)c1 [compound 690] | 4.3*
16 | FC(F)c1cnc(Nc2ccccc2)nc1NC1CC1 [compound 722] | 1.56*
17 | N#CCC(=O)c1ccc(Nc2ncc(Br)c(NC3CC3)n2)cc1 [compound 759] | 2.16*
18 | Cc1cccc(Nc2ncc(Br)c(NC3CC3)n2)c1 [compound 730] | 2.07*
19 | COC(=O)Nc1ccc(Nc2ncc(Cl)c(NC(C)C3CC3)n2)cc1 (stereo not shown) [compound 168] | 1.64*
20 | COC(=O)Nc1ccc(Nc2ncc(C#N)c(NC3CC3)n2)cc1 [compound 159] | 1.91*
21 | Cc1cccc(C)c1Nc1ncc(Cl)c(NCC2CC2)n1 [compound 682] | 1.87*

The next lines start with the values.

Row | logP | Compound
22 | 2.06* | Clc1cnc(Nc2ccc(-c3cscn3)cc2)nc1NCC1CC1 [compound 689]
23 | 1.82* | COCc1cccc(Nc2ncc(Cl)c(NCC3CC3)n2)c1 [compound 709]
24 | 2.11* | CC(C)C(=O)Nc1ccc(Nc2ncc(C(F)(F)F)c(NC3CC3)n2)cc1 [compound 663]
25 | 3.21* | COC(=O)c1ccc(Nc2ncc(C(F)(F)F)c(NC3CC3)n2)cc1 [compound 971]
26 | 1.49* | Oc1cccc(Nc2ncc(Cl)c(NCC3CC3)n2)c1 [compound 681]
27 | 3.89* | CC(Cl)c1cccc(Nc2ncc(C(F)(F)F)c(NCC3CC3)n2)c1 (stereo not shown) [compound 703]

Same assay, conditions: HPLC on reversed-phase C18, method *: 40° C.; mobile phase 0.1% aqueous formic acid and acetonitrile; linear gradient 10% to 95% acetonitrile

Row | logP | Compound
28 | 2.06* | CCN(C(=O)OC)c1ccc(Nc2ncc(Br)c(NC3CC3)n2)cc1 [compound 303]
29 | 1.85* | COC(=O)Cc1ccc(Nc2ncc(Cl)c(NC3CC3)n2)cc1 [compound 287]
30 | 1.61* | COC(=O)Nc1cccc(Nc2ncc(Br)c(NC3CC3)n2)c1 [compound 309]
31 | 2.59* | O=C1CCCN1c1cc(Nc2ncc(Cl)c(NC3CC3)n2)c(Cl)cc1Cl [compound 298]

Same assay, conditions: HPLC on reversed-phase C18 column (EEC Directive 79/831 Annex V.A8); method *: 40° C.; 0.1% aqueous formic acid and acetonitrile; linear gradient 10% to 95% acetonitrile

Row | Compound | logP
32 | CS(=O)(=O)Nc1cccc(Nc2ncc(Cl)c(NC3CC3)n2)c1 [compound 242] | 1.47*
33 | CS(=O)(=O)Cc1cccc(Nc2ncc(Cl)c(NC3CC3)n2)c1 [compound 243] | 1.46*
34 | Clc1cnc(Nc2cccc(-c3cccs3)c2)nc1NC1CC1 [compound 197] | 2.9*
35 | CC(C)Sc1cccc(Nc2ncc(Cl)c(NC3CC3)n2)c1 [compound 264] | 3.18*

More lines, now with the values ahead:

Row | logP | Compound
36 | 1.93* | Brc1cnc(Nc2ccccc2)nc1NCC1CC1 [compound 189]
37 | 2.63* | CS(=O)(=O)c1ccc(Nc2ncc(C(F)(F)F)c(NCC3CC3)n2)cc1 [compound 200]

Same assay, conditions: HPLC reversed-phase C 18, EEC Directive 79/831 Annex V.A8; method **: 43° C., 0.1% aqueous phosphoric acid and acetonitrile, linear gradient 10% to 95% acetonitrile

Row | logP | Compound
38 | 2.23** | CSc1cccc(Nc2nc(C)c(Cl)c(NC3CC3)n2)c1 [compound 837]

Same assay, conditions: HPLC reversed-phase C 18, EEC Directive 79/831 Annex V.A8; method *: 40° C., 0.1% aqueous formic acid and acetonitrile, linear gradient 10% to 95% acetonitrile

Row | Compound | logP
39 | CC(C)(C)NC(=O)c1cccc(Nc2ncc(Cl)c(NC3CC3)n2)c1 [compound 831] | 2.07*
40 | CCSC(C)c1cccc(Nc2ncc(Cl)c(NC3CC3)n2)c1 (stereo not shown) [compound 810] | 2.82*
41 | CC(O)C(=O)Nc1cccc(Nc2ncc(Cl)c(NC3CC3)n2)c1 (stereo not shown) [compound 856] | 1.49*

More lines, now with the values ahead:

Row | logP | Compound
42 | 3.95* | CSC(C)c1cccc(Nc2ncc(C(F)(F)F)c(NCC3CC3)n2)c1 (stereo not shown) [compound 827]
43 | 3.81* | CSC(C)c1cccc(Nc2ncc(C(F)(F)F)c(NC3CC3)n2)c1 (stereo not shown) [compound 825]

Same assay, conditions: method **: HPLC reversed-phase C 18, 43° C., 0.1% aqueous phosphoric acid and acetonitrile, linear gradient 10% to 95% acetonitrile

Row | logP | Compound
44 | 2.48** | NS(=O)(=O)c1cc(Nc2ncc(Cl)c(NC3CC3)n2)cc(C(F)(F)F)c1 [compound 17]
45 | 2.04** | O=C1OCCN1c1ccc(Nc2ncc(C(F)(F)F)c(NC3CC3)n2)cc1 [compound 367]
46 | 2.9** | O=[N+]([O-])c1ccc(Nc2ncc(Cl)c(NC3CC3)n2)cc1 [compound 438]

Same assay, conditions: method **: HPLC reversed-phase C 18, temperature 43° C.; mobile phase 0.1% aqueous phosphoric acid and acetonitrile; linear gradient 10% to 95% acetonitrile

Row | logP | Compound
47 | 2.23** | Clc1cnc(Nc2cccc(N3CCCC3)c2)nc1NC1CC1 [compound 619]

Same assay, conditions: method **: HPLC, reversed-phase C 18, 43° C., mobile phase 0.1% aqueous phosphoric acid and acetonitrile, linear gradient from 10% to 95% acetonitrile

Row | logP | Compound
48 | 3.07** | CSc1cccc(Nc2ncc(Cl)c(NC3CC3(C)C)n2)c1 (stereo not shown) [compound 1029]
49 | 2.37** | COCc1cccc(Nc2ncc(Cl)c(NC3CC3(C)C)n2)c1 (stereo not shown) [compound 1028]
50 | 0.83** | Clc1cnc(Nc2cccc(Cn3ccnc3)c2)nc1NC1CC1 [compound 1046]

Same assay, conditions: method *: HPLC reversed-phase C18, 40° C., 0.1% aqueous formic acid and acetonitrile, linear gradient 10% to 95% acetonitrile

Row | Compound | logP
51 | CNC(=O)c1cccc(Nc2ncc(Br)c(NC3CC3)n2)c1 [compound 383] | 1.39*
52 | O=C1OCCN1c1ccc(Nc2ncc(Cl)c(NC3CC3)n2)cc1 [compound 83] | 1.39*
53 | CC(=O)Nc1ccc(Nc2ncc(Br)c(NC3CC3)n2)cc1Cl [compound 379] | 1.64*
54 | CC(=O)Nc1ccc(Nc2ncc(Cl)c(NC3CC3)n2)cc1.Cc1ccc(S(=O)(=O)O)cc1 [compound 434] | 1.02*

Continued, values first:

Row | logP | Compound
55 | 1.53* | Oc1ccc(Nc2ncc(Br)c(NCC3CC3)n2)cc1F [compound 464]
56 | 3.72* | FC(F)(F)Sc1ccc(Nc2ncc(Cl)c(NC3CC3)n2)cc1 [compound 376]
57 | 1.68* | COc1ccc(Nc2ncc(Br)c(NCC3CC3)n2)cc1OC [compound 409]
58 | 1.94*; | O=C1OCCN1c1ccc(Nc2ncc(C(F)(F)F)c(NC3CC3)n2)cc1 [compound 367]

Same assay, conditions: method *: HPLC reversed-phase C 18, temperature 40° C.; mobile phase 0.1% aqueous formic acid and acetonitrile; linear gradient 10% to 95% acetonitrile

Row | Compound | logP
59 | Fc1cc(F)cc(Nc2ncc(Cl)c(NCC3CC3)n2)c1 [compound 603] | 3.42*
60 | COc1cc(Nc2ncc(Br)c(NC3CC3)n2)ccc1F [compound 568] | 2.05*
61 | CCC(=O)Nc1cccc(Nc2ncc(C#N)c(NC3CC3)n2)c1 [compound 607] | 1.94*
62 | N#Cc1cccc(Nc2ncc(F)c(NC3CC3)n2)c1 [compound 571] | 1.61*
63 | CN1CCN(c2cccc(Nc3ncc(Br)c(NC4CC4)n3)c2)C1=O [compound 570] | 1.58*
64 | COC(=O)Nc1cccc(Nc2ncc(F)c(NC3CC3)n2)c1 [compound 598] | 1.37*

Results, then the compound that gave them:

Row | logP | Compound
65 | 2.99* | N#Cc1ccc(Nc2ncc(C(F)(F)F)c(NC3CC3)n2)cc1 [compound 642]
66 | 1.38* | CS(=O)(=O)Cc1cccc(Nc2ncc(Cl)c(NCC3CC3)n2)c1 [compound 566]

Same assay, conditions: method *: HPLC, reversed-phase C 18, 40° C., mobile phase 0.1% aqueous formic acid and acetonitrile, linear gradient from 10% to 95% acetonitrile

Row | logP | Compound
67 | 3.07*; | CSc1cccc(Nc2ncc(Cl)c(NC3CC3(C)C)n2)c1 (stereo not shown) [compound 1029]
68 | 1.34* | CC(=O)Nc1cc(Nc2ncc(Cl)c(NC3CC3)n2)ccc1C [compound 982]
69 | 0.84* | Clc1cnc(Nc2cccc(OCCN3CCOCC3)c2)nc1NC1CC1 [compound 1040]
70 | 2.62* | Fc1ccc(Nc2ncc(Cl)c(NC3CC3)n2)cc1OC(F)F [compound 1053]
71 | 3.78* | CCCCSc1cccc(Nc2ncc(Cl)c(NC3CC3)n2)c1 [compound 1054]
72 | 2.36*; | COCc1cccc(Nc2ncc(Cl)c(NC3CC3(C)C)n2)c1 (stereo not shown) [compound 1028]
73 | 1.8* | O=C(c1cccc(Nc2ncc(Cl)c(NC3CC3)n2)c1)N1CCSCC1 [compound 1067]
74 | 3.55* | CCCCCc1ccc(Nc2ncc(Cl)c(NC3CC3)n2)cc1 [compound 1048]
75 | 2.42* | CC(C)Oc1ccc(Nc2ncc(Cl)c(NC3CC3)n2)cc1OC(C)C [compound 992]

Same assay, conditions: pH 2.3; read-out: logP (pH2.3)

Row | chromatographic logP | Compound
76 | 1.55 | O=C(O)c1ccc(Nc2ncc(Cl)c(NC3CC3)n2)cc1 [4-{[5-chloro-4-(cyclopropylamino)pyrimidin-2-yl]amino}benzoic acid]
77 | 3.52 | Clc1cnc(Nc2ccccc2)nc1Cl [4,5-Dichloro-N-phenylpyrimidine-2-amine]
78 | 1.61 | Clc1cnc(Nc2ccccc2)nc1NC1CC1 [Example 2, 5-Chloro-N^4-cyclopropyl-N^2-phenylpyrimidine-2,4-diamine]

Same assay, conditions: reversed-phase C18 HPLC column; method *: HPLC reversed-phase C 18, 40° C., 0.1% aqueous formic acid and acetonitrile, linear gradient 10% to 95% acetonitrile; read-out: logP

Row | chromatographic logP | Compound
79 | 1.61 | Clc1cnc(Nc2ccccc2)nc1NC1CC1 [Example 2, 5-Chloro-N^4-cyclopropyl-N^2-phenylpyrimidine-2,4-diamine]
